The supplement of paper PMC11781733
Structures can show the parent of a compound that is named as a salt.

What was measured:
Details in all cases: exposure time: 15 min to 3 h acute
Dugesia japonica [1] = experiment: speed first 30 s blue light vs vehicle (% change vs vehicle); higher = higher incidence or increase relative to vehicle control
Experimental: (§1)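 Adult asexual Dugesia japonica planarians (1 per well, 48-well plate, n=24 over technical triplicates) were exposed acutely (15 min to 3 h) to each compound (0.5% DMSO or water vehicle) and screened on a robotic platform for crawl-out, stickiness, body shape, phototaxis, noxious-heat scrunching and locomotion endpoints. Binary endpoints are incidence rate x100 normalised to in-plate vehicle controls. Continuous endpoints are the median response normalised to the plate vehicle median, as % change or difference. Negative incidences after vehicle subtraction were set to 0.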

Dugesia japonica [2] = experiment: hyperkinesis incidence (% planarians (vehicle-normalised)); higher = higher incidence or increase relative to vehicle control
Experimental: as §1

Dugesia japonica [3] = experiment: stickiness incidence (% planarians (vehicle-normalised)); higher = higher incidence or increase relative to vehicle control
Experimental: as §1

Dugesia japonica [4] = experiment: speed second 30 s blue light vs vehicle (% change vs vehicle); higher = higher incidence or increase relative to vehicle control
Experimental: as §1

Dugesia japonica [5] = experiment: C-shape incidence (% planarians (vehicle-normalised)); higher = higher incidence or increase relative to vehicle control
Experimental: as §1

Dugesia japonica [6] = experiment: resting fraction in dark vs vehicle (difference in fraction x100 vs vehicle); higher = higher incidence or increase relative to vehicle control
Experimental: as §1

Dugesia japonica [7] = experiment: total locomotor bursts minus vehicle (bursts difference vs vehicle); higher = higher incidence or increase relative to vehicle control
Experimental: as §1

Dugesia japonica [8] = experiment: crawl-out incidence (% planarians); higher = higher incidence or increase relative to vehicle control
Experimental: as §1, with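 “x100.” for “x100 normalised to in-plate vehicle controls.”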

Dugesia japonica [9] = experiment: loss of phototaxis incidence (% planarians (vehicle-normalised)); higher = higher incidence or increase relative to vehicle control
Experimental: as §1

Dugesia japonica [10] = experiment: any abnormal body shape incidence (% planarians (vehicle-normalised)); higher = higher incidence or increase relative to vehicle control
Experimental: as §1

Dugesia japonica [11] = experiment: pharynx extrusion incidence (% planarians (vehicle-normalised)); higher = higher incidence or increase relative to vehicle control
Experimental: as §1

Dugesia japonica [12] = experiment: speed in dark vs vehicle (% change vs vehicle); higher = higher incidence or increase relative to vehicle control
Experimental: as §1

Dugesia japonica [13] = experiment: noxious heat displacement strength vs vehicle (% change vs vehicle); higher = higher incidence or increase relative to vehicle control
Experimental: as §1

Dugesia japonica [14] = experiment: contracted body shape incidence (% planarians (vehicle-normalised)); higher = higher incidence or increase relative to vehicle control
Experimental: as §1

Dugesia japonica [15] = experiment: resting fraction in blue light vs vehicle (difference in fraction x100 vs vehicle); higher = higher incidence or increase relative to vehicle control
Experimental: as §1

Dugesia japonica [16] = experiment: loss of heat-induced scrunching incidence (% planarians (vehicle-normalised)); higher = higher incidence or increase relative to vehicle control
Experimental: as §1

Dugesia japonica [17] = experiment: anxiety (time in outer well region) vs vehicle (% change vs vehicle); higher = higher incidence or increase relative to vehicle control
Experimental: as §1

Dugesia japonica [18] = experiment: corkscrew incidence (% planarians (vehicle-normalised)); higher = higher incidence or increase relative to vehicle control
Experimental: as §1

Row | Structure (SMILES) | speed first 30 s blue light (Dugesia japonica [1]) | hyperkinesis incidence (Dugesia japonica [2]) | stickiness incidence (Dugesia japonica [3]) | speed second 30 s blue light (Dugesia japonica [4]) | C-shape incidence (Dugesia japonica [5]) | resting fraction in dark (Dugesia japonica [6]) | total locomotor bursts minus vehicle (Dugesia japonica [7]) | crawl-out incidence (Dugesia japonica [8]) | loss of phototaxis incidence (Dugesia japonica [9]) | any abnormal body shape incidence (Dugesia japonica [10]) | pharynx extrusion incidence (Dugesia japonica [11]) | speed in dark (Dugesia japonica [12]) | noxious heat displacement strength (Dugesia japonica [13]) | contracted body shape incidence (Dugesia japonica [14]) | resting fraction in blue light (Dugesia japonica [15]) | loss of heat-induced scrunching incidence (Dugesia japonica [16]) | anxiety (Dugesia japonica [17]) | corkscrew incidence (Dugesia japonica [18])
1 | O=C1CC2(CCCC2)CC(=O)N1CCCCN1CCN(c2ncccn2)CC1 [buspirone] (10 µM) | -68.5 | 20.8 | 16.7 | -54.8 | 0 | 16.7 | 6.25 | 0 | 25 | 20.8 | 0 | -20.5 | -46.4 | 4.17 | 26.6 | 8.33 | -1.55 | 0
2 | CNCC[C@H](Oc1cccc2ccccc12)c1cccs1 [s-duloxetine] (10 µM) | 142 | 75 | ≤ 0 | 34.6 | 0 | -32.6 | -13 | 0 | 50 | 75 | 0 | 124 | -38 | 0 | -12.1 | 8.33 | -1.76 | 0
3 | O=C(O)C(=O)O [oxalic acid] (316 µM) | -63.2 | 58.3 | 37.5 | -69 | 0 | 33 | 31.5 | 0 | 8.33 | 62.5 | 0 | -42.2 | -67.5 | 0 | 22.9 | ≤ 0 | -24.7 | 0
4 | O=C(CCCN1CCC(O)(c2ccc(Br)cc2)CC1)c1ccc(F)cc1 [bromperidol] (100 µM) | -53.3 | 42.9 | ≤ 0 | -63.4 | 4.76 | 43.4 | 17 | 25 | ≤ 0 | 57.1 | 0 | -39.1 | -48 | 4.76 | 40.4 | 28.6 | 21.1 | 23.8
5 | O=C1CCc2ccc(OCCCCN3CCN(c4cccc(Cl)c4Cl)CC3)cc2N1 [aripiprazole] (31.6 µM) | -79.9 | 12.5 | ≤ 0 | -81.8 | 62.5 | 56.6 | 53 | 0 | 25 | 70.8 | 4.17 | -62.3 | -38.6 | 0 | 32 | 70.8 | -46.5 | 4.17
6 | CN[C@H]1CC[C@@H](c2ccc(Cl)c(Cl)c2)c2ccccc21 [sertraline hydrochloride] (31.6 µM) | -36 | 4.35 | 4.35 | -42.3 | 0 | -19.3 | 6.5 | 4.17 | ≤ 0 | 4.35 | 0 | -31.9 | 3.64 | 0 | 4.64 | 47.8 | 1.57 | 0
7 | CN1CCN(C2=Nc3cc(Cl)ccc3Nc3ccccc32)CC1 [clozapine] (100 µM) | -96.9 | 23.8 | ≤ 0 | -96.2 | 57.1 | 77.6 | -4.5 | 0 | 62.5 | 81 | 0 | -79.5 | -29.6 | 28.6 | 87.8 | 79.2 | -11.2 | 9.52
8 | CN[C@H]1CC[C@@H](c2ccc(Cl)c(Cl)c2)c2ccccc21 [sertraline hydrochloride] (10 µM) | -16.8 | 0 | 4.17 | 0.96 | 0 | -1.57 | -9.5 | 0 | ≤ 0 | 0 | 0 | 24.4 | 27 | 0 | 0.73 | 33.3 | 1.96 | 0
9 | CCCCNc1c(C(=O)OCC)c(C)nc2c1cnn2CC [tracazolate hydrochloride] (10 µM) | -24.7 | 0 | ≤ 0 | -17.8 | 0 | 1.52 | 4.5 | 0 | ≤ 0 | 0 | 0 | -27.1 | -3.78 | 0 | 0 | 16.7 | -12.6 | 0
10 | O=C(O)/C=C\C(=O)O [maleic acid] (200 µM) | -32.5 | 0 | 12.5 | -23.8 | 0 | -12.7 | -2 | 0 | ≤ 0 | 0 | 0 | -20.4 | -39.3 | 0 | -5.42 | 33.3 | 23.7 | 0
11 | O=C(CCCN1CC=C(n2c(=O)[nH]c3ccccc32)CC1)c1ccc(F)cc1 [droperidol] (31.6 µM) | -94.6 | 25 | 12.5 | -94.3 | 29.2 | 86.7 | 12.2 | 0 | 58.3 | 95.8 | 0 | -81.9 | -34 | 70.8 | 85.4 | 75 | -26.3 | 4.17
12 | O=C(CCCN1CCC(O)(c2ccc(Br)cc2)CC1)c1ccc(F)cc1 [bromperidol] (10 µM) | -49.8 | 52.4 | ≤ 0 | -60.1 | 0 | 50.5 | 8 | 25 | ≤ 0 | 66.7 | 0 | -40.7 | -32.1 | 4.76 | 38 | 47.6 | 7.64 | 42.9
13 | O=C(CCCN1CCC(O)(c2ccc(Cl)cc2)CC1)c1ccc(F)cc1 [haloperidol] (10 µM) | -57.5 | 10 | ≤ 0 | -53.4 | 0 | 15.2 | 11.5 | 16.7 | 20 | 20 | 0 | -47.5 | -26.4 | 5 | 8.2 | 25 | -0.48 | 10
14 | Cc1cc2c(s1)Nc1ccccc1N=C2N1CCN(C)CC1 [olanzapine] (316 µM) | -94.9 | 45.5 | 22.7 | -89.1 | 27.3 | 73.9 | 7 | 37.5 | 13.3 | 81.8 | 0 | -71.2 | -47.4 | 31.8 | 77.4 | 72.7 | -6.74 | 13.6
15 | O=C(CCCN1CCC(O)(c2ccc(Br)cc2)CC1)c1ccc(F)cc1 [bromperidol] (3.16 µM) | -55.1 | 47.6 | ≤ 0 | -53.4 | 4.76 | 24 | 11 | 33.3 | ≤ 0 | 57.1 | 0 | -33.9 | -37 | 9.52 | 28.6 | 47.6 | -1.33 | 14.3
